Assay results published in patent publication US12338220B2, “Antiviral pyrazolopiridinone compounds” (Novartis AG, priority 2019, dated 2025).
Read-outs that look alike come from different tables or passages of the source.

Tests used:
CMV = assay: microbe, parasite or virus in culture; format: cell-based; conditions: Human betaherpesvirus 5, 72 h, read-out: CMV-Luc Cellular EC50, NN-NHDF cells, MOI 1, 72 hrs
HSV-polymerase = HSV-polymerase (Human herpesvirus 1 (strain 17) (HHV-1) (Human herpes simplex virus 1), UniProt P04293); assay: biochemical
CMV-polymerase = CMV-polymerase (Human cytomegalovirus (strain AD169) (HHV-5) (Human herpesvirus 5), UniProt P08546); assay: biochemical
[1] = test system: HCMV-Rluc virus (AD169 pp28-hRluc rUL131); assay: CMV Luciferase Assay of Compounds 243-262 in ARPE-19 cells; format: cell-based; conditions: Human betaherpesvirus 5, AD169, ARPE-19, 72 h, read-out: CMV-Luc Cellular EC50 in ARPE-19
Description: CMV Luciferase Assay of Compounds 243-262.
Compounds 243-262 were tested in a luminescence assay as follows.
ARPE-19 cells were maintained in growth medium (DMEM/F12 Glutamax+10 fetal bovine serum (FBS)+PenStrep) and, before reaching full confluence, were transferred to a centrifuge tube and spun for 5 minutes at 1000 rpm. The cells were resuspended in assay medium (DMEM/F12 Glutamax+2% FBS+PenStrep) and counted. Cell density was adjusted to one million cells per milliliter and infected with HCMV-Rluc virus (AD169 pp28-hRluc rUL131; MOI 0.6) in a 50 ml conical tube for 2 hours while shaking. After dilution of the infectious suspension ten-fold (to 100,000 cells per milliliter), 8000 cells are directly plated in 384-well plates pre-spotted with the compound to be tested. The cells were incubated for 72 hours at 37 degrees Celsius. Cells were then placed at room temperature and allowed to equilibrate for 20 minutes before addition of the Renilla-Glo (Promega) reagent. After a 10-minute incubation at room temperature, luminescence was measured on a microplate reader.

[2] = read-out: CMV-polymerase Biochemical IC50

Row | SMILES | EC50 (CMV) [nM] | EC50 [1] [nM] | further results
1 | Cn1nc(C(=O)NCc2ccc(C#N)cc2)c2c1C(=O)N(CC1(S(=O)(=O)C3COC3)CC1)CC2 [Example 168, N-(4-cyanobenzyl)-1-methyl-6-((1-(oxetan-3-ylsulfonyl)cyclopropyl)methyl)-7-oxo-4,5,6,7-tetrahydro-1H-pyrazolo[3,4-c]pyridine-3-carboxamide] | 72 | – | IC50 (HSV-polymerase; read-out: HSV-polymerase Biochemical IC50): 97 nM; IC50 (CMV-polymerase; CMV-polymerase Biochemical IC50): 4 nM
2 | C[C@H](NC(=O)c1nn(C)c2c1CCN(CC1(S(=O)(=O)C(C)(CO)CO)CC1)C2=O)c1ccc(Cl)cc1 [Example 177, (S)-N-(1-(4-Chlorophenyl)ethyl)-6-((1-((1,3-dihydroxy-2-methylpropan-2-yl)sulfonyl)cyclopropyl)methyl)-1-methyl-7-oxo-4,5,6,7-tetrahydro-1H-pyrazolo[3,4-c]pyridine-3-carboxamide] | 168 | – | IC50 (HSV-polymerase): 122 nM; IC50 (CMV-polymerase; [2]): 4 nM
3 | C[C@@H](NC(=O)c1nn(C)c2c1CCN(CC1(S(=O)(=O)C(C)(CO)CO)CC1)C2=O)c1ccc(Cl)cc1 [Example 178, (R)-N-(1-(4-Chlorophenyl)ethyl)-6-((1-((1,3-dihydroxy-2-methylpropan-2-yl)sulfonyl)cyclopropyl)methyl)-1-methyl-7-oxo-4,5,6,7-tetrahydro-1H-pyrazolo[3,4-c]pyridine-3-carboxamide] | 9720 | – | IC50 (HSV-polymerase): 8060 nM; IC50 (CMV-polymerase; [2]): 240 nM
4 | Cn1nc(C(=O)NCc2ccc(C#N)cc2)c2c1C(=O)N(CC1(S(=O)(=O)Nc3cccc(CO)n3)CC1)CC2 [Example 243, N-(4-cyanobenzyl)-6-((1-(N-(6-(hydroxymethyl)pyridin-2-yl)sulfamoyl)cyclopropyl)methyl)-1-methyl-7-oxo-4,5,6,7-tetrahydro-1H-pyrazolo[3,4-c]pyridine-3-carboxamide] | – | 115 | –
5 | CC(=O)Nc1cccc(NS(=O)(=O)C2(CN3CCc4c(C(=O)NCc5ccc(C#N)cc5)nn(C)c4C3=O)CC2)n1 [Example 244, 6-((1-(N-(6-acetamidopyridin-2-yl)sulfamoyl)cyclopropyl)methyl)-N-(4-cyanobenzyl)-1-methyl-7-oxo-4,5,6,7-tetrahydro-1H-pyrazolo[3,4-c]pyridine-3-carboxamide] | – | 116 | –
6 | Cn1nc(C(=O)NCc2ccc(C#N)cc2)c2c1C(=O)N(CC1(S(=O)(=O)Nc3cnccn3)CC1)CC2 [Example 245, N-(4-cyanobenzyl)-1-methyl-7-oxo-6-((1-(N-(pyrazin-2-yl)sulfamoyl)cyclopropyl)methyl)-4,5,6,7-tetrahydro-1H-pyrazolo[3,4-c]pyridine-3-carboxamide] | – | 181 | –
7 | Cn1nc(C(=O)NCc2ccc(C#N)cc2)c2c1C(=O)N(CC1(S(=O)(=O)Nc3ccccc3)CC1)CC2 [Example 246, N-(4-cyanobenzyl)-1-methyl-7-oxo-6-((1-(N-phenylsulfamoyl)cyclopropyl)methyl)-4,5,6,7-tetrahydro-1H-pyrazolo[3,4-c]pyridine-3-carboxamide] | – | 74.5 | –
8 | Cn1nc(C(=O)NCc2ccc(C#N)cc2)c2c1C(=O)N(CC1(S(=O)(=O)Nc3ncccc3F)CC1)CC2 [Example 247, N-(4-cyanobenzyl)-6-((1-(N-(3-fluoropyridin-2-yl)sulfamoyl)cyclopropyl)methyl)-1-methyl-7-oxo-4,5,6,7-tetrahydro-1H-pyrazolo[3,4-c]pyridine-3-carboxamide] | – | 388 | –
9 | Cn1nc(C(=O)NCc2ccc(C#N)cc2)c2c1C(=O)N(CC1(S(=O)(=O)Nc3ccccc3C#N)CC1)CC2 [Example 248, N-(4-cyanobenzyl)-6-((1-(N-(2-cyanophenyl)sulfamoyl)cyclopropyl)methyl)-1-methyl-7-oxo-4,5,6,7-tetrahydro-1H-pyrazolo[3,4-c]pyridine-3-carboxamide] | – | 10000 | –
10 | Cn1nc(C(=O)NCc2ccc(Cl)c(F)c2)c2c1C(=O)N(CC1(S(=O)(=O)C(C)(C)C(O)CO)CC1)CC2 (stereo not shown) [Example 249, N-(4-chloro-3-fluorobenzyl)-6-((1-((3,4-dihydroxy-2-methylbutan-2-yl)sulfonyl)cyclopropyl)methyl)-1-methyl-7-oxo-4,5,6,7-tetrahydro-1H-pyrazolo[3,4-c]pyridine-3-carboxamide] | – | 8.24 | –
